Experimental data as given in publication PMC7539012, “Hyperphosphorylated tau aggregation and cytotoxicity modulators screen identified prescription drugs linked to Alzheimer's disease and cognitive functions” (Scientific Reports, 2020).
Counter-ions that a name gives are not always drawn.

system: T1, 1N4R p-tau; assay: p-tau aggregation modulator screen of 1280-compound library (ThS fluorescence net change over 16 h); type: biochemical; design: key to PTAI>2SD: *: PTAI>2SD; key to PTAI>3SD: *: PTAI>3SD; conditions: not given
T1 construct: made in house; host or cells: E. coli (PIMAX system)

Row | Compound | ThS net change
1 | Clc1ccc(CO/N=C(\Cn2ccnc2)c2ccc(Cl)cc2Cl)c(Cl)c1 [Oxiconazole Nitrate] | 211
2 | CC(N)C(O)c1ccccc1 (centres unmarked) [Phenylpropanolamine hydrochloride] | 395
3 | COc1ccc([C@@H]2CC(=O)c3c(O)cc(O[C@@H]4O[C@H](CO[C@@H]5O[C@@H](C)[C@H](O)[C@@H](O)[C@H]5O)[C@@H](O)[C@H](O)[C@H]4O)cc3O2)cc1O [Hesperidin] | 425
4 | CNCCC(Oc1ccccc1OC)c1ccccc1 (centres unmarked) [Nisoxetine hydrochloride] | 364
5 | CC(C)c1cccc(C(C)C)c1O [Propofol] | 400

same assay, conditions: 30 µM compound, 6 µM p-tau, 16 h

Row | Compound | effect on p-tau aggregation in pilot screen
6 | CC/C(=C(/CC)c1ccc(O)cc1)c1ccc(O)cc1 [diethylstilbestrol, reference compound] | none of them affected p-tau aggregation

same assay, conditions: 1280-compound library screen; ThS fluorescence net change over 16 h

Row | Compound | ThS net change
7 | CCCCC[C@H](O)/C=C/[C@@H]1[C@@H](C/C=C\CCCC(=O)O)[C@@H](O)C[C@H]1O [Dinoprost trometamol] | 384
8 | CC/C(=C(/CC)c1ccc(O)cc1)c1ccc(O)cc1 [diethylstilbestrol, reference compound] | 406
9 | CC(CNC1CCCCC1)OC(=O)c1ccccc1 (centres unmarked) [Hexylcaine hydrochloride] | 393
10 | Nc1nc(O)c2ncn(COC(CO)CO)c2n1 [Ganciclovir] | 404
11 | Nc1ccc(S(=O)(=O)Nc2ccccn2)cc1 [Sulfapyridine] | 394
12 | Nc1c2ccccc2nc2ccccc12 [Aminacrine] | 408
13 | CN(N=O)C(=O)N[C@H]1C(O)O[C@H](CO)[C@@H](O)[C@@H]1O (mixture of isomers) [Streptozotocin] | 384
14 | COc1ccccc1O [Guaiacol] | 397
15 | COC(=O)N/N=C/c1c[n+]([O-])c2ccccc2[n+]1[O-] [Carbadox] | 380
16 | CCCCOc1ccc(OCCCN2CCOCC2)cc1 [Pramoxine hydrochloride] | 381
17 | NC(N)=Nc1nc(CSCCC(N)=NS(N)(=O)=O)cs1 [Famotidine] | 390
18 | CCN1C(=O)NC(c2ccccc2)C1=O (centres unmarked) [Ethotoin] | 394
19 | Cc1c(Cl)cccc1Nc1ccccc1C(=O)O [Tolfenamic acid] | 383
20 | [H]/N=C(/N)N[C@H]1[C@H](O)[C@@H](O)[C@H](O[C@@H]2O[C@@H](C)[C@](O)(C=O)[C@H]2O[C@@H]2O[C@@H](CO)[C@H](O)[C@@H](O)[C@@H]2NC)[C@@H](N/C(N)=N\[H])[C@@H]1O [Streptomycin sulfate] | 397
21 | CCOC(=O)[C@H](CCc1ccccc1)N[C@H]1CCc2ccccc2N(CC(=O)O)C1=O [Benazepril HCl] | 382
22 | CCN(CC)CCOC(=O)C(c1ccccc1)C1CCCCC1 (centres unmarked) [Drofenine hydrochloride] | 388
23 | Nc1nc(=O)c2nc(CNc3ccc(C(=O)N[C@@H](CCC(=O)O)C(=O)O)cc3)cnc2[nH]1 [Folic acid] | 398
24 | O=C1NCCN1c1ncc([N+](=O)[O-])s1 [Niridazole] | 399
25 | C=C1C[C@H]2[C@@H]3C=C(C)C4=CC(=O)CC[C@]4(C)[C@H]3CC[C@]2(C)[C@@]1(OC(C)=O)C(C)=O [Melengestrol acetate] | 404
26 | C1N2CN3CN1CN(C2)C3 [Methenamine] | 391

same assay, conditions: 1280-compound library screen; […]

Row | Compound | ThS net change
27 | CC(=O)OC1CN2CCC1CC2 (centres unmarked) [Aceclidine Hydrochloride] | 409
28 | CCN(CC)C(C)C(=O)c1ccccc1 (centres unmarked) [Amfepramone hydrochloride] | 388
29 | O=C(O)CCCC[C@@H]1SC[C@@H]2NC(=O)N[C@@H]21 [Biotin] | 380

same assay, conditions: flag: p-tau aggregation inhibitor, ThS net change more than 2 SD from mean

Row | Compound | PTAI>2SD
30 | C=C1c2c(Cl)ccc(O)c2C(=O)C2=C(O)[C@]3(O)C(=O)C(C(N)=O)=C(O)[C@@H](N(C)C)[C@@H]3[C@@H](O)[C@H]12.O=C(O)c1cc(S(=O)(=O)O)ccc1O [Meclocycline sulfosalicylate] | *

same assay, conditions: flag: p-tau aggregation inhibitor, ThS net change more than 3 SD from mean

Row | Compound | PTAI>3SD
31 | Cc1cc(/C=C/c2ccc3cc(N(C)C)ccc3[n+]2C)c(C)n1-c1ccccc1 [Pyrvinium pamoate] | *

same assay, conditions: library screen, ThS fluorescence net change over 16 h with p-tau

Row | Compound | ThS net change
32 | COC(=O)C1=C(C#N)NC(C)=C(C(=O)OC(C)C)C1c1cccc([N+](=O)[O-])c1 (centres unmarked) [Nilvadipine] | 266
33 | C=C1c2c(Cl)ccc(O)c2C(=O)C2=C(O)[C@]3(O)C(=O)C(C(N)=O)=C(O)[C@@H](N(C)C)[C@@H]3[C@@H](O)[C@H]12.O=C(O)c1cc(S(=O)(=O)O)ccc1O [Meclocycline sulfosalicylate] | 171
34 | CCN(CC)CCOC(=O)C1(C2CCCCC2)CCCCC1 [Dicyclomine hydrochloride] | 282
35 | COc1cc2nc(N3CCN(C(=O)C4COc5ccccc5O4)CC3)nc(N)c2cc1OC (centres unmarked) [Doxazosin mesylate] | 310
36 | CCN(CC)CCOC(=O)C(Cc1cccc2ccccc12)CC1CCCO1 (centres unmarked) [Nafronyl oxalate] | 324
37 | Cc1cc(/C=C/c2ccc3cc(N(C)C)ccc3[n+]2C)c(C)n1-c1ccccc1 [Pyrvinium pamoate] | -379

same assay, conditions: p-tau aggregation modulator screen of 1280-compound library; ThS fluorescence net change

Row | Compound | ThS net change
38 | CCN(CC)C(=S)SSC(=S)N(CC)CC [Disulfiram] | 339
39 | CN1C(C)(C)CCCC1(C)C [Pempidine tartrate] | 362
40 | COc1ccc2c(c1)N(C[C@H](C)CN(C)C)c1ccccc1S2.O=C(O)/C=C\C(=O)O [Methotrimeprazine maleat salt] | 355
41 | Cc1cc(C(C)(C)CC(C)(C)C)ccc1OCCOCC[N+](C)(C)Cc1ccccc1.[Cl-] [Methyl benzethonium chloride] | 348
42 | COc1ccc(CC2c3cc(OC)c(OC)cc3CC[N+]2(C)CCC(=O)OCCCCCOC(=O)CC[N+]2(C)CCc3cc(OC)c(OC)cc3C2Cc2ccc(OC)c(OC)c2)cc1OC (centres unmarked) [Atracurium besylate] | 370
43 | CC(C)N(CCC(C(N)=O)(c1ccccc1)c1ccccn1)C(C)C (centres unmarked) [Disopyramide] | 377
44 | Nc1nc(=O)n([C@@H]2CS[C@H](CO)O2)cc1F [(-)-Emtricitabine] | 359
45 | Cc1ccc(C(=O)c2ccc(CC(=O)O)n2C)cc1 [Tolmetin sodium salt dihydrate] | 364
46 | Nc1[nH]c(=O)ncc1F [Flucytosine] | 334
47 | Nc1ccc(O)c(C(=O)O)c1 [Mesalamine] | 363
48 | CC(C)(O/N=C(\C(=O)N[C@@H]1C(=O)N2C(C(=O)[O-])=C(C[n+]3ccccc3)CS[C@H]12)c1csc(N)n1)C(=O)O [Ceftazidime pentahydrate] | 358
49 | CC(C)(C)NC(=O)[C@H]1CC[C@H]2[C@@H]3CC[C@H]4NC(=O)C=C[C@]4(C)[C@H]3CC[C@]12C [Finasteride] | 346
50 | COc1ccc2[nH]cc(CCNC(C)=O)c2c1 [Melatonin] | 356
51 | O=C(O)c1cccnc1Nc1cccc(C(F)(F)F)c1 [Niflumic acid] | 340
52 | Cn1cnc([N+](=O)[O-])c1Sc1ncnc2nc[nH]c12 [Azathioprine] | 367
53 | CC(=O)[C@H]1CC[C@H]2[C@@H]3CCC4=CC(=O)CC[C@]4(C)[C@H]3CC[C@]12C [Progesterone] | 336
54 | CC(C(=O)O)c1ccc(N2Cc3ccccc3C2=O)cc1 (centres unmarked) [Indoprofen] | 364
55 | CN1C[C@H](CNC(=O)OCc2ccccc2)C[C@@H]2c3cccc4c3c(cn4C)C[C@H]21 [Metergoline] | 349
56 | CC(C)(C(=O)c1cccnc1)c1cccnc1 [Metyrapone] | 353
57 | CC(COc1ccccc1)NC(C)C(O)c1ccc(O)cc1 (centres unmarked) [Isoxsuprine hydrochloride] | 347

same assay, conditions: p-tau aggregation modulator screen of 1280-compound library; […]

Row | Compound | ThS net change
58 | O.O=C(O)C(O)C(O)C(=O)O.O=C(c1ccc(F)cc1)C1CCN(CCn2c(=O)[nH]c3ccccc3c2=O)CC1 [Ketanserin tartrate hydrate] | 354
59 | CC[C@@]1([C@@H]2O[C@@H]([C@H]3O[C@@](O)(CO)[C@H](C)C[C@@H]3C)C[C@@H]2C)CC[C@H]([C@]2(C)CC[C@]3(C[C@H](O)[C@@H](C)[C@@H]([C@@H](C)[C@@H](OC)[C@H](C)C(=O)[O-])O3)O2)O1.[Na+] [Monensin sodium salt] | 342
60 | Oc1ccc2c3c1O[C@H]1[C@@H](O)CC[C@@]4(O)[C@@H](C2)N(CC2CCC2)CC[C@]314 [Nalbuphine hydrochloride] | 371
61 | Clc1ccc(CSC(Cn2ccnc2)c2ccc(Cl)cc2Cl)cc1 (centres unmarked) [Sulconazole nitrate] | 336
62 | Br.C[N+]1([O-])[C@@H]2C[C@@H](OC(=O)[C@H](CO)c3ccccc3)C[C@H]1[C@@H]1O[C@@H]12 (some centres unmarked) [Scopolamin-N-oxide hydrobromide] | 345

same assay, conditions: p-tau aggregation modulator screen of the compound library, ThS fluorescence net change

Row | Compound | ThS net change
63 | C[C@]12CC[C@H](O)C[C@H]1CC[C@@H]1[C@@H]2C[C@@H](O)[C@]2(C)[C@@H](C3=CC(=O)OC3)CC[C@]12O [Digoxigenin] | 440
64 | CC(=O)O[C@]1(C(C)=O)CC[C@H]2[C@@H]3C=C(C)C4=CC(=O)CC[C@@H]4[C@H]3CC[C@@]21C [Nomegestrol acetate] | 463
65 | CN(C)CC/C=C1/c2ccccc2COc2ccc(CC(=O)O)cc21 [Olopatadine hydrochloride] | 439
66 | CN1[C@@H]2CC[C@H]1C[C@@H](OC(c1ccccc1)c1ccccc1)C2 [Benztropine mesylate] | 419
67 | CN(CCOc1ccc(CC2SC(=O)NC2=O)cc1)c1ccccn1.Cl (centres unmarked) [Rosiglitazone Hydrochloride] | 476
68 | CC(C)c1nc(CN(C)C(=O)N[C@H](C(=O)N[C@@H](Cc2ccccc2)C[C@H](O)[C@H](Cc2ccccc2)NC(=O)OCc2cncs2)C(C)C)cs1 [Ritonavir] | 538
69 | C=C1CC[C@@]2(O)[C@H]3Cc4ccc(O)c5c4[C@@]2(CCN3CC2CC2)[C@H]1O5 [Nalmefene hydrochloride] | 418
70 | C=C1C(=O)O[C@H]2[C@H]1CC/C(C)=C/CC[C@@]1(C)O[C@@H]21 [Parthenolide] | 434
71 | CCc1cccc2c3c([nH]c12)C(CC)(CC(=O)O)OCC3 (centres unmarked) [Etodolac] | 443
72 | CCCc1nn(C)c2c(=O)[nH]c(-c3cc(S(=O)(=O)N4CCN(C)CC4)ccc3OCC)nc12 [Sildenafil] | 461
73 | CC(C)(C#N)c1cc(Cn2cncn2)cc(C(C)(C)C#N)c1 [Anastrozole] | 484
74 | CN1C(C(=O)Nc2ccccn2)=C(O)c2sccc2S1(=O)=O [Tenoxicam] | 416
